This note sets out measurements from patent US12302908B2, “Insect neuropeptides 4” (Solasta Bio Limited, priority 2023, dated 2025).

In assay [1] the test system is Plutella xylostella. In words: Leaf dip assay 2 (IRAC susceptibility test method 019), mortality. In kind it is in vivo. Conditions: unformulated peptide at 1×10^−4 M; dipped leaf disc on agar; after 96 hours; FIG. 6. As for the experimental part: The assay was carried out based on IRAC susceptibility test method 019 (irac-online.org/methods/aphids-adultnymphs/). Fill a small 4 cm wide 3 cm high dish with a 1% agar treatment solution of the active chemical or control (ensuring 1 cm gap between the agar and the lid) and leave to set. Dip a 2.5 cm leaf disc into 3 ml of treatment solution allowing the treatment to coat the leaf. Leave the disc to dry for 1 hour and place onto the set agar. Place insects (Plutella xylostella) onto each of the leaf discs. Each unit is sealed with a close-fitting, ventilated lid. Place the agar dishes in a small plastic tray lined with moist tissue paper and ensure the water trays in the bottom of the incubator are filled with clean water and place within the incubator. An assessment of mortality is made at 72, 96 and 120 hours. Leaf dip assays were performed with SB—P-81, and compared to a negative control vehicle and a current commercial insecticide Chlorantraniliprole. The activity of SB—P-81 is shown in FIG. 6; SB—P-81 has good activity whilst being eco-friendly and targeted to specific pests unlike broad spectrum chemical insecticides such as Chlorantraniliprole.

In assay [2] the test system is Plutella xylostella. In words: Leaf dip assay 1 (IRAC susceptibility test method 018, performed by FERA), mortality. In kind it is in vivo. The settings on record: unformulated peptide at 2×10^−4 M; 2nd/3rd instar larvae on dipped Chinese cabbage leaf discs; mortality assessed after 120 hours; FIG. 4. Here is the method: The assay was carried out based on IRAC susceptibility test method 018 by a contract research organization, FERA Science Ltd. Test insects Larvae (2nd/3rd instar) were sourced from a laboratory culture of P. xylostella. The culture has been maintained in a controlled environment (CE) room with conditions of 25° C. and 16:8 lighting regime on Chinese cabbage plants. Chinese cabbage leaves were used in the bioassays. A CE room set at 25° C. and 60% r.h. with a 16 hour light: 8 hours dark lighting regime, was used. Leaf discs (approximately 35 mm in diameter) were cut from fully expanded Chinese cabbage leaves. Each leaf disc was dipped in a separate peptide solution for 10 seconds with gentle agitation and placed on a damp filter paper (underside surface uppermost). There were ten replicates for each treatment and control, with five leaf discs per replicate. The treated discs were then put onto damp filter paper in the base of a Petri dishes (90 mm in diameter, 15 mm high) (underside surface uppermost). Five larvae were then transferred onto the treated leaf discs. The dishes were placed in the CE room and mortality was assessed after 120 hours. Leaf dip assays were performed with SB—P-81, and compared to a negative control vehicle and a current commercial insecticide Gazelle SG (shown as Acetamiprid). […]

Take “[Hy]-GGSMTFSPRL-[NH2] (H-GGSMTFSPRL-NH2) [SB—P-81, pyrokinin peptide according to the invention]”: in the assay on Plutella xylostella [1], the “activity against Plutella xylostella (mortality), leaf dip assay 2” value is “good activity”. Moreover, the “activity against Plutella xylostella (mortality), leaf dip assay 1” value in the assay on Plutella xylostella [2] is recorded as “good activity”.
